Laboratory results published in patent US4820716A, “7-(1-Pyrrolidinyl)-quinolonecarboxylic acid derivatives” (Bayer Aktiengesellschaft, priority 1986, dated 1989).
In brackets after ≈: the same amount, converted by molar mass. Like-named read-outs stand apart in the source and are kept apart here.

Assays:
Assay in all cases: MIC, agar dilution test (multipoint inoculator)
Format in all cases: cell-based
[1] = tested on: E. coli; conditions: Escherichia coli, Isosensitest medium pH 7.2
Description: (§1) *Agar dilution test (multipoint inoculator) Isosensitest medium pH 7.2

[2] = tested on: Klebsiella pneum.
Description: as §1

[3] = tested on: Proteus mir.; conditions: Isosensitest medium pH 7.2
Description: as §1

[4] = tested on: Proteus morg.; conditions: Isosensitest medium pH 7.2
Description: as §1

[5] = tested on: Proteus vulg.
Description: as §1

[6] = tested on: Providencia stuartei
Description: as §1

[7] = tested on: Psdm. aeruginosa; conditions: Pseudomonas aeruginosa, Isosensitest medium pH 7.2
Description: as §1

[8] = tested on: Serratia marc.; conditions: strain 16040, Isosensitest medium pH 7.2
Description: as §1

[9] = tested on: Staph. aureus; conditions: Staphylococcus aureus, Isosensitest medium pH 7.2
Description: as §1

[10] = tested on: Strepto. faecalis; conditions: Isosensitest medium pH 7.2
Description: as §1

[11] = pH 7.2, strain 455/7, read-out: MIC
[12] = pH 7.2, strain Neumann, read-out: MIC
[13] = pH 7.2, strain 57USA, Isosensitest medium pH 7.2, read-out: MIC
[14] = pH 7.2, strain 63, Isosensitest medium pH 7.2, read-out: MIC
[15] = pH 7.2, strain 6179, Isosensitest medium pH 7.2, read-out: MIC
[16] = pH 7.2, strain 6318, Isosensitest medium pH 7.2, read-out: MIC
[17] = pH 7.2, strain 8085, Isosensitest medium pH 7.2, read-out: MIC
[18] = pH 7.2, strain 8175, read-out: MIC
[19] = pH 7.2, strain 8223, read-out: MIC
[20] = strain 1017, Isosensitest medium pH 7.2, read-out: MIC
[21] = pH 7.2, strain 12012, Isosensitest medium pH 7.2
[22] = pH 7.2, strain 12052, Isosensitest medium pH 7.2

Structure (SMILES) | MIC [1, 11] [µg/mL] | MIC ([1]; pH 7.2, strain 4418) [µg/mL] | MIC ([1]; pH 7.2, strain A261) [µg/mL] | MIC [1, 12] [µg/mL] | MIC ([1]; pH 7.2, strain T7) [µg/mL] | MIC [2, 13] [µg/mL] | MIC [2, 14] [µg/mL] | MIC [2, 15] [µg/mL] | MIC [2, 16] [µg/mL] | MIC [2, 17] [µg/mL] | MIC [6, 21] [µg/mL] | MIC [6, 22] [µg/mL] | MIC ([7]; pH 7.2, strain Ellsworth) [µg/mL] | MIC ([7]; pH 7.2, strain Walter) [µg/mL] | MIC [8] [µg/mL] | MIC ([9]; pH 7.2, strain 133) [µg/mL] | MIC ([9]; pH 7.2, strain 1756) [µg/mL] | MIC ([9]; pH 7.2, strain FK422) [µg/mL] | MIC ([10]; pH 7.2, strain 9790) [µg/mL] | MIC ([10]; pH 7.2, strain 27101) [µg/mL] | further results
O=C(O)c1cn(C2CC2)c2cc(N3CCC(O)C3)c(F)cc2c1=O (racemic) [Example 1, 1-cyclopropyl-6-fluoro-1,4-dihydro-7-(3-hydroxy-1-pyrrolidinyl)-4-oxo-3-quinolinecarboxylic acid] | 32 (≈ 96.3 µM) | < 0.015 | < 0.015 | ≤ 0.015 | < 0.015 | 0.125 (≈ 0.376 µM) | < 0.015 | 0.125 (≈ 0.376 µM) | 0.06 (≈ 0.181 µM) | ≤ 0.015 | ≤ 0.015 | 32 (≈ 96.3 µM) | 0.125 (≈ 0.376 µM) | 1 (≈ 3.01 µM) | 32 (≈ 96.3 µM) | ≤ 0.015 | ≤ 0.015 | ≤ 0.015 | 0.125 (≈ 0.376 µM) | 0.125 (≈ 0.376 µM) | MIC [3, 18]: 0.06 µg/mL (≈ 0.181 µM); MIC [3, 19]: 2 µg/mL (≈ 6.02 µM); MIC ([4]; strain 932, read-out: MIC): ≤ 0.015 µg/mL; MIC ([4]; strain 11006): ≤ 0.015 µg/mL; MIC [5, 20]: ≤ 0.015 µg/mL
O=C(O)c1cn(C2CC2)c2cc(N3CCNCC3)c(F)cc2c1=O [Ciprofloxacin, 1-cyclopropyl-6-fluoro-1,4-dihydro-4-oxo-7-(1-piperazinyl)-3-quinolinecarboxylic acid, reference compound] | 1 (≈ 3.02 µM) |  |  | ≤ 0.015 |  |  |  |  |  |  | ≤ 0.015 | 16 (≈ 48.3 µM) | 0.06 (≈ 0.181 µM) | 0.5 (≈ 1.51 µM) | 8 (≈ 24.1 µM) | 0.25 (≈ 0.754 µM) | 0.25 (≈ 0.754 µM) | 0.5 (≈ 1.51 µM) | 0.5 (≈ 1.51 µM) | 0.25 (≈ 0.754 µM) | MIC ([1]; pH 7.2, strain 4418, read-out: MIC): ≤ 0.015 µg/mL; MIC ([1]; pH 7.2, strain A261, read-out: MIC): ≤ 0.015 µg/mL; MIC ([1]; pH 7.2, strain T7, read-out: MIC): ≤ 0.015 µg/mL; MIC ([2]; pH 7.2, strain 57USA, Isosensitest medium pH 7.2): ≤ 0.015 µg/mL; MIC ([2]; pH 7.2, strain 63, Isosensitest medium pH 7.2): 0.03 µg/mL (≈ 0.0905 µM); MIC ([2]; pH 7.2, strain 6318, Isosensitest medium pH 7.2): 0.06 µg/mL (≈ 0.181 µM); MIC ([2]; pH 7.2, strain 8085, Isosensitest medium pH 7.2): ≤ 0.015 µg/mL; MIC ([3]; pH 7.2, strain 8175): 0.06 µg/mL (≈ 0.181 µM); MIC ([3]; pH 7.2, strain 8223): 4 µg/mL (≈ 12.1 µM); MIC ([4]; pH 7.2, strain 932): < 0.015 µg/mL; MIC ([4]; pH 7.2, strain 11006): ≤ 0.015 µg/mL; MIC ([5]; pH 7.2): ≤ 0.015 µg/mL
O=C(O)c1cn(C2CC2)c2c(Cl)c(N3CCC(O)C3)c(F)cc2c1=O (centres unmarked) [Example 3, 8-chloro-1-cyclopropyl-7-fluoro-1,4-dihydro-7-(3-hydroxy-1-pyrrolidinyl)-4-oxo-3-quinolinecarboxylic acid] | 0.25 (≈ 0.682 µM) | ≤ 0.015 | ≤ 0.015 | ≤ 0.015 | ≤ 0.015 | ≤ 0.015 | ≤ 0.015 | < 0.015 | ≤ 0.015 | ≤ 0.015 | ≤ 0.015 | 1 (≈ 2.73 µM) | ≤ 0.015 | 0.25 (≈ 0.682 µM) | 1 (≈ 2.73 µM) | ≤ 0.015 | ≤ 0.015 | ≤ 0.015 | ≤ 0.015 | ≤ 0.015 | MIC [3, 18]: ≤ 0.015 µg/mL; MIC [3, 19]: 0.06 µg/mL (≈ 0.164 µM); MIC ([4]; strain 932, read-out: MIC): ≤ 0.015 µg/mL; MIC ([4]; strain 11006): ≤ 0.015 µg/mL; MIC [5, 20]: ≤ 0.015 µg/mL
